Counter-ions that a name gives are not always drawn.

A short description of data set [1]: Particle size from SEM/TEM images. The settings on record: for particle size (SEM/TEM): milled with NaCl, grinding compound removed by washing. In kind it is physicochemical.
A short description of data set [2]: Particle size distribution (dynamic light scattering). Type of data set: physicochemical. The following applies: washed dispersion, larger aggregates removed by centrifugation. From the text: In a preferred form of the invention, about 90% of the particles have a particle size of less than about 500 nm. The particles distribution can be measured with dynamic light scattering of a dispersion of the particles with the aid of sonication, and after centrifugation at 500 rcf for 30 seconds to remove larger agglomerates from the dispersion. Other means to measure the particles size are for examples surface area measurements, and electron micrographs, which can be used to support the measured size distribution of the particles.
The size determined by SEM is in good agreement with the size distribution of the dispersion before drying by dynamic light scatter (DLS) (FIG. 10). Here the particles size was determined with a Malvern HPPS dynamic light scattering apparatus with a size distribution after number of 128±53 nm (number weighted) in intensity a second peak of 300 nm was detected. Prior to the measurement any larger aggregates or agglomerates were removed by 1 min centrifugation at 6000 g, and only the supernatant was analyzed.

Another data set is described as follows: BET surface area. The following applies: for BET surface area: raloxifene forms, milled with NaCl and washed (commercial: as obtained). Type of data set: physicochemical.
The nature of data set [3]: Pharmacokinetics after oral capsule administration, crossover study. The settings on record: 12 beagle dogs. In kind it is in vivo. As to the method:
This study involved the investigation of the pharmacokinetics of raloxifene hydrochloride following oral administration of two dosage formulations to 12 male and female beagle dogs. The two dosage forms investigated were 1) raloxifene hydrochloride particles, developed according to the method of the present invention, and 2) standard API. Both forms were administered as capsules prepared by the Pharmaceutics laboratory of TetraQ.
The study was designed as a crossover trial conducted in 6 male and 6 female healthy Beagle dogs. Raloxifene was administered as an oral dose with three male plus three female dogs each receiving one of the two preparations on each of two dosing occasions. Eleven plasma samples were collected from each animal in the 24 hour period following each dose and these were all available for determination of raloxifene concentration.
Plasma samples were transported to the TetraQ-ADME laboratories on dry ice and all were in an intact (frozen) condition upon arrival. The concentration of raloxifene in the plasma samples was determined by an LC-MS/MS assay developed and validated by TetraQ-ADME,
Pharmacokinetic analysis was performed using purpose-written macros for Excel Software. Standard model-independent pharmacokinetic methods were used. Nominal sampling times were used in the calculations. The plasma raloxifene concentrations were used to determine the following parameters: • (i) Cmax Maximum plasma concentration, read directly from the raw data. • (ii) Tmax Time at which Cmax was achieved, also read directly from the raw data. • (iii) ke Terminal elimination rate constant, which was determined as the slope of the regression line of best fit to the approximately log-linear terminal elimination phase (using the least squares linear regression function in the Excel 2003 software). […]

A short description of data set [4]: Dissolution in simulated gastric fluid (USP apparatus). In kind it is physicochemical. The following applies: simulated gastric fluid (SGF), 60 mg in 1 L fluid, 90 minutes post addition. As to the method:
(§1) The dissolution properties of the particulate raloxifene hydrochloride were tested with a USP apparatus in simulated gastric conditions, and compared with commercial raloxifene hydrochloride. About 60 mg of particulate raloxifene hydrochloride and commercial raloxifene hydrochloride, respectively, were introduced into gelatin capsules. The dissolution properties were followed as a function of solution concentration versus time.
The dissolution conditions were as follows: 1 L of 0.1 M HCl containing 2 g of NaCl were degassed and brought to 37° C. in a USP conform dissolution vessel to paddle and stirred at about 80 rpm. […] For each time point, 2 mL of sample were removed from the solution, to remove larger aggregates it was centrifuged for 1 min at 10000 g and 1.5 ml was taken from the top of the solution and the concentration was measured using a Waters HPLC running a method validated with respect to specificity, linearity, precision and repeatability.
(§2) As tested prior to administration to the dogs, the particulate raloxifene hydrochloride had the following properties: >75% of the particles were in the range of 220-350 nm in size, with >90% in the range of […]. […] At 90 minutes post addition, approximately 15 mg/L of particulate raloxifene was detected versus 8 mg/L of comparison API for SGF; and 4.5 mg/L versus 0.75 mg/L for SIF.

Data set [5] can be described thus: Dissolution in simulated intestinal fluid. Type of data set: physicochemical. The following applies: simulated intestinal fluid (SIF), 60 mg in 1 L fluid, 90 minutes post addition. As for the experimental part:
as §1, §2

Data set [6] is described as follows: Stability of drug on dry milling. Type of data set: physicochemical. The settings on record: dry milled with NaCl for 180 minutes; attributed to degradation of the drug. As for the experimental part: [drawing 3] was placed in a milling apparatus (a 70 cm^3 stainless steel ball mill container) with grinding compound in the form of 3.68 g of NaCl, thereby providing the mixture at 9.6 and 90.4 weight % respectively, corresponding to 15 and 85 volume %, with a total volume of 2 cm^3. Milling media comprising 40 g of 10 mm steel balls (10 pieces) were employed in the container. The milling apparatus was closed under house vacuum prior to milling. […] The mixture was dry milled for 15 minutes and 180 minutes, the composition resulting after milling for both times comprised olanzapine in nanoparticulate form dispersed in the grinding medium NaCl.
Milling times assayed included 15 and 180 minutes in two separate milling runs. Analysis of the melting point of the nanoparticles produced at 180 minute milling time period confirmed that the resulting composition was olanzapine, with a melting point in the range of 200° C.

Setting [7] is: 15 vol % sample in NaCl, washed, stabilized with CTAB.

Consider `O=C(O)Cc1ccccc1Nc1c(Cl)cccc1Cl` [DCA, diclofenac acid], for which, in data set [1] (setting [7]), the nanoparticle size result is recorded as “less than 200 nm” and the “size of the majority of nanoparticles” value was 30-50 nm. Moreover, in data set [1] (milled with NH4Cl, washed with 0.01 M HCl and 1 mM CTAB), the “nanoparticle diameter (TEM)” value is “about 200 nm”. In addition, the “particle size (SEM/TEM)” value in data set [1] was 100-200 nm. Moreover, the “particle size by DLS (number weighted)” value in data set [2] worked out at 160±30 nm.
For `O=C(c1ccc(OCCN2CCCCC2)cc1)c1c(-c2ccc(O)cc2)sc2cc(O)ccc12` [Raloxifene Free Base], in data set [1], the “particle size (SEM/TEM)” value is “under 100 nm”. In addition, the “particle diameter calculated from BET surface area” value in “BET surface area” (density of 1.2 g/cm^3) is reported as 85 nm; in the data set “BET surface area” (density of 1.3 g/cm^3, assuming monodispersed nanoparticles) it was “about 80 nm”; in the data set “BET surface area” (density of 1.4 g/cm^3) it was 70 nm. Further, the BET surface area in “BET surface area” is on record as 57.7178±0.4095 m^2/g.
As for `O=C(c1ccc(OCCN2CCCCC2)cc1)c1c(-c2ccc(O)cc2)sc2cc(O)ccc12` [Raloxifene HCl (Amorphous), raloxifene hydrochloride], the “particle size (SEM/TEM)” value in data set [1] (hydrochloride) is 100-200 nm. In addition, in the data set “BET surface area” (hydrochloride), the BET surface area came out at 10.6 m^2/g.
Regarding `O=C(c1ccc(OCCN2CCCCC2)cc1)c1c(-c2ccc(O)cc2)sc2cc(O)ccc12` [commercial raloxifene hydrochloride, raloxifene hydrochloride], the “area under the concentration vs. time curve (AUC0-t)” value in data set [3] (mean±SD) is 21.36 ± 16.79 ng·h/mL. Also, the Cmax in data set [3] (both sexes, dog, plasma, mean±SD, read-out: maximum plasma concentration (Cmax)) stood at 7.69 ± 4.54 ng/mL. In data set [3] (both sexes, dog, plasma, read-out: median time to maximum concentration (Tmax)), the Tmax came to 1.5 h. The “solution concentration detected (dissolution)” value in data set [4] was roughly 8 mg/L; in data set [5], roughly 0.75 mg/L. In “BET surface area” (listed as commercial raloxifene HCl, hydrochloride), this molecule yielded a BET surface area of 0.1 m^2/g.
In the case of `Cc1cc2c(s1)Nc1ccccc1N=C2N1CCN(C)CC1` [olanzapine], the “appearance after milling (degradation)” value in data set [6] is recorded as “some decolourization”.

The values above are taken from patent publication US8808751B2, “Methods for the preparation of biologically active compounds in nanoparticulate form” (Iceutica Pty Ltd., priority 2006, dated 2014).
